Measurements reported in article PMC5732813, “Novel piplartine-containing ruthenium complexes: synthesis, cell growth inhibition, apoptosis induction and ROS production on HCT116 cells” (Oncotarget, 2017).
Like-named read-outs stand apart in the source and are kept apart here.

How the values were obtained:
HCT116 cells [1] = conditions: trypan blue
Protocol: In all experiments, 2 mL of a HCT116 cell solution (7 x 10^4 cells/mL) was inserted in 24-well plates and incubated overnight to allow the cells to adhere to the plate surface. […] The negative control was treated with the vehicle (0.1% of a solution containing 70% sorbitol, 25% tween 80 and 5% water) used for diluting the compounds tested. […] Cell viability was assessed using trypan blue exclusion assay for all experiments.

[2] = test system: PBMC (human peripheral blood mononuclear cells); assay: Cytotoxic activity, alamar blue assay, PBMC non-cancer cells; type: cell-based; conditions: Homo sapiens
Protocol: PBMCs were washed and resuspended at a concentration of 3 x 10^5 cells/mL in RPMI 1640 medium with 20% fetal bovine serum, 2 mM glutamine and 50 μg/mL gentamycin at 37°C with 5% CO2. […] The Research Ethics Committee of the Oswaldo Cruz Foundation (Salvador, Bahia, Brazil) approved the experimental protocol (# 031019/2013). All participants signed a written informed consent to participate in the study.
(§1) Cell viability was quantified using the alamar blue assay, according to Ahmed et al.. Cells were inserted in 96-well plates for all experiments (7 x 10^4 cells/mL for adherent cells or 3 x 10^5 cells/mL for suspended cells in 100 μL of medium). […] Negative controls received the vehicle that was used for diluting the compounds tested.

calf thymus DNA (ctDNA) = assay: DNA intercalation assay (ethidium bromide displacement); type: binding; conditions: ctDNA 15 μg/mL, ethidium bromide 1.5 μM; complexes 5, 10 and 20 μM; doxorubicin 10 μM; data not shown
Protocol: DNA intercalation was assessed by examining the ability of the complexes to displace ethidium bromide from ctDNA (Sigma-Aldrich Co., Saint Louis, MO, USA). Sexplicate assays (100 μL) were conducted in 96-well plates and contained 15 μg/mL ctDNA, 1.5 μM ethidium bromide and 5, 10 and 20 μM of each complexes in saline solution. […] Fluorescence was measured using excitation and emission wavelengths of 320 nm and 600 nm, respectively using the spectraMax Microplate Reader (Molecular Devices, Sunnyvale, CA, EUA).

[3] = test system: MRC-5 (human lung fibroblast); assay: Cytotoxic activity, alamar blue assay, MRC-5 non-cancer cells; type: cell-based; conditions: Homo sapiens
Description: (§2) HCT116 (human colon carcinoma), HepG2 (human hepatocellular carcinoma), HSC-3 (human oral squamous cell carcinoma), SCC-4 (human oral squamous cell carcinoma), SCC-9 (human oral squamous cell carcinoma), HL-60 (human promyelocytic leukemia), K-562 (human chronic myelogenous leukemia), B16-F10 (murine melanoma), MRC-5 (human lung fibroblast), WT SV40 MEF (wild-type immortalized mouse embryonic fibroblast) and BAD KO SV40 MEF (BAD gene knockout immortalized mouse embryonic fibroblast) cell lines were obtained from the American Type Culture Collection (ATCC, Manassas, VA, USA) and cultured in RPMI-1640 medium (Gibco-BRL, Gaithersburg, MD, USA) with 10% fetal bovine serum (Life, Carlsbad, CA, USA), 2 mM L-glutamine (Vetec Química Fina, Duque de Caxias, RJ, Brazil) and 50 μg/mL gentamycin (Life, Carlsbad, CA, USA). Adherent cells were collected by treatment with 0.25% trypsin EDTA solution (Gibco-BRL, Gaithersburg, MD, USA). All cell lines were cultured in flasks at 37°C in 5% CO2 and sub-cultured every 3-4 days to maintain exponential growth.
as §1

[4] = test system: HCT116 (human colon carcinoma); assay: Cytotoxic activity, alamar blue assay, HCT116; type: cell-based
Description: as §2, §1

caspase-3 = assay: Caspase-3 activation assay (DEVD-pNA, colorimetric); conditions: HCT116, DEVD-pNA, 48h; PL 10 μM
Protocol: (§3) To investigate the mechanisms involved in cytotoxic action of the complexes, a new set of experiments was performed. In all experiments, 2 mL of a HCT116 cell solution (7 x 10^4 cells/mL) was inserted in 24-well plates and incubated overnight to allow the cells to adhere to the plate surface. […] The negative control was treated with the vehicle (0.1% of a solution containing 70% sorbitol, 25% tween 80 and 5% water) used for diluting the compounds tested. […] Cell viability was assessed using trypan blue exclusion assay for all experiments.
A caspase-3 colorimetric assay kit (Sigma-Aldrich Co., Saint Louis, MO, USA) was used to investigate caspase-3 activation on complexes-treated HCT116 cells based on the cleavage of DEVD-pNA and the analysis was performed according to the manufacturer’s instructions. Briefly, cells were lysed by incubation with cell lysis buffer on ice for 10 min and then centrifuged. Enzyme reactions were carried out in a 96-well flat-bottom microplate. To each reaction mixture, 5 μL cell lysate was added. Absorbance at 405 nm was measured using the SpectraMax 190 Microplate Reader (Molecular Devices, Sunnyvale, CA, EUA). The results were expressed as specific activity (IU/mg protein) of caspase-3.

HCT116 cells [5] = assay: Measurement of the mitochondrial transmembrane potential (rhodamine 123); conditions: HCT116, rhodamine 123, 24h; PL 10 μM
Protocol: as §3
Mitochondrial transmembrane potential was determined by the retention of the dye rhodamine 123 [59]. Cells were incubated with rhodamine 123 (5 μg/mL, Sigma-Aldrich Co., Saint Louis, MO, USA) at 37 °C for 15 min in the dark and washed with saline. The cells were then incubated again in saline at 37 °C for 30 min in the dark and cell fluorescence was determined by flow cytometry as described above.

HCT116 cells [6] = assay: Cellular reactive oxygen species levels (DCF-DA); type: cell-based, human; conditions: 1 h, PL 10 μM
Protocol: The levels of ROS were measured according to previously described using DCF-DA (Sigma-Aldrich Co., Saint Louis, MO, USA). In brief, cells were treated with the complexes for 1 and 3 h. Then, the cells were collected, washed with saline and resuspended in FACS tubes with saline containing 5 μM DCF-DA for 30 min.

HCT116 cells [7] = conditions: HCT116, 24 and 48h; PL 10 μM
Protocol: as §3
For apoptosis detection, we used a FITC Annexin V Apoptosis Detection Kit I (BD Biosciences, San Jose, CA, EUA) and the analysis were performed according to the manufacturer’s instructions. Briefly, the cells treated were collected after the indicated time, washed twice with cold saline and resuspended in 300 μL binding buffer. Then, it was added 5 μL of Annexin V-FITC staining buffer and 5 μL of propidium iodide. The mixture was incubated in the dark at 37°C for 15 min. Cell fluorescence was measured by flow cytometry as described above.
In a new set of experiments, the cells were pre-treated for 1 h with 5 mM NAC, then incubated with the complexes in the established concentration for 48 h. The cells were then trypsinized and the FITC Annexin V Apoptosis Detection assay and trypan blue exclusion assay were conducted as described above.

In the case of “[Ru(piplartine)(dppb)(bipy)](PF6)2 [Complex 2]”, the “reduced the number of viable cells” value (HCT116 cells [1]; HCT116, 2.5 μM, 24 h) is reported as 35.5%, the “reduced the number of viable cells” value (HCT116 cells [1]; HCT116, 2.5 μM, 48 h) is reported as 55.5% and the “reduced the number of viable cells” value (HCT116 cells [1]; HCT116, 5 μM, 24 h) is reported as 45.8%. For the same compound, the “reduced the number of viable cells” value (HCT116 cells [1]; HCT116, 5 μM, 48 h) was 66.9%.

In the case of `COc1cccc2c1C(=O)c1c(O)c3c(c(O)c1C2=O)C[C@@](O)(C(=O)CO)C[C@@H]3O[C@H]1C[C@H](N)[C@H](O)[C@H](C)O1` [Doxorubicin], the IC50 ([2]; PBMC non-cancer cells, 72h of incubation, alamar blue, with 95% confidence interval, read-out: IC50) is reported as 5.4 µM, the “DNA intercalation (decrease of ethidium bromide fluorescence)” value (calf thymus DNA (ctDNA)) is reported as “significantly reduced fluorescence” and the IC50 ([3]; MRC5, MRC-5 non-cancer cells, 72h of incubation, alamar blue, with 95% confidence interval, read-out: IC50) is reported as 1.3 µM.

With `COc1cc(/C=C/C(=O)N2CCC=CC2=O)cc(OC)c1OC` [Piplartine] the IC50 ([2]; PBMC, 72 h) was 34.2 µM, the “Selectivity index (SI)” value ([4]; SI = IC50[MRC-5]/IC50[HCT116]) was 2.7 and the “Selectivity index (SI)” value ([4]; SI = IC50[PBMC]/IC50[HCT116]) was 5.3. The “activation of caspase-3” value (caspase-3) was “activation of caspase-3”, the mitochondrial depolarization (HCT116 cells [5]) was “Mitochondrial depolarization” and the IC50 ([3]; MRC5, 72 h) was 17.3 µM. For the same compound, the “intracellular ROS levels” value (HCT116 cells [6]) was “induced increasing oxidative stress” and the “early and late apoptosis (annexin-V/PI)” value (HCT116 cells [7]) was “induced increasing in the early and late apoptosis”.

For “[Ru(piplartine)(dppf)(bipy)](PF6)2 [Complex 1]”, the “more potent than metal-free piplartine” value ([4]; HCT116, IC50 72h) was 4 fold, the “Selectivity index (SI)” value ([4]; SI = IC50[MRC-5]/IC50[HCT116]) was 2.0 and the “Selectivity index (SI)” value ([4]; SI = IC50[PBMC]/IC50[HCT116]) was 1.1. For the same compound, the “reduced the number of viable cells” value (HCT116 cells [1]; HCT116, 1.25 μM, 24 h) was 40.2%, the “reduced the number of viable cells” value (HCT116 cells [1]; HCT116, 1.25 μM, 48 h) was 61.5% and the “reduced the number of viable cells” value (HCT116 cells [1]; HCT116, 2.5 μM, 24 h) was 65.4%. For the same compound, the “reduced the number of viable cells” value (HCT116 cells [1]; HCT116, 2.5 μM, 48 h) was 77.1%.
